Assay results published in publication PMC8878928 (International Journal of Molecular Sciences, 2022).

Assays:
SARS-CoV-2 [1] = tested on: SARS-CoV-2; design: method as in PMID 32198291; conditions: Calu-3 cell line; read-out: EC50 (viral RNA copies); cited from earlier work
3CL^Pro = conditions: read-out: IC50 against 3CL^Pro; lead compound; cited from earlier work
SARS-CoV-2 [2] = conditions: co-administration of PF07321332 and Ritonavir, oral, phase II/III trials; cited from earlier work
SARS-CoV-2 3CL^Pro = SARS-CoV-2 3CL^Pro (Severe acute respiratory syndrome coronavirus 2, UniProt P0DTD1); experiment: FRET-based 3CLPro enzymatic inhibition assay (SARS-CoV-2); assay type: biochemical; conditions: 0.2 μM enzyme, mean ± SE, n = 3
SARS-CoV 3CL^Pro = SARS-CoV 3CL^Pro (Severe acute respiratory syndrome coronavirus, UniProt P0C6X7); experiment: biochemical
SARS-CoV-2 [3] = experiment: SARS-CoV-2 infection assay in Vero E6 cells, viral RNA by qPCR; assay type: cell-based; conditions: final concentration 10 μM, initial screen

| Compound | EC50 (SARS-CoV-2 [1]) | IC50 (3CL^Pro) | Reduction of overall hospitalizations (SARS-CoV-2 [2]) | IC50 (SARS-CoV-2 3CL^Pro) | IC50 (SARS-CoV 3CL^Pro) | Reduction of RNA loads of SARS-CoV-2 (relative level to DMSO control) (SARS-CoV-2 [3]) |
| --- | --- | --- | --- | --- | --- | --- |
| CC(C)(C)OC(=O)Nc1cccn([C@@H](CC2CC2)C(=O)N[C@@H](C[C@@H]2CCNC2=O)C(=O)C(=O)NCc2ccccc2)c1=O [13b] | 4000 to 5000 nM | 670 ± 180 nM | – | – | – | – |
| CC(C)(C)[C@H](NC(=O)C(F)(F)F)C(=O)N1C[C@H]2[C@@H]([C@H]1C(=O)N[C@H](C#N)C[C@@H]1CCNC1=O)C2(C)C [PF-07321332] | – | – | 89% | – | – | – |
| CC(C)C[C@H](NC(=O)[C@@H](NC(=O)C1CCCCC1)C(C)C)C(=O)N[C@H](C=O)C[C@@H]1CCCNC1=O [TPM1] | – | – | – | 241 ± 0.5 nM | 479 ± 29 nM | – |
| CC(C)C[C@H](NC(=O)[C@@H](NC(=O)c1ccco1)C(C)C)C(=O)N[C@H](C=O)C[C@@H]1CCCNC1=O [TPM5] | – | – | – | 59 ± 2 nM | 134 ± 1 nM | – |
| COc1ccc(/C=C/C(=O)N[C@H](C(=O)N[C@@H](CC(C)C)C(=O)N[C@H](C=O)C[C@@H]2CCCNC2=O)C(C)C)cc1 [TPM10] | – | – | – | 80 ± 2 nM | 231 ± 4 nM | – |
| CC(C)C[C@H](NC(=O)[C@H](Cc1ccccc1)NC(=O)/C=C/c1ccccc1)C(=O)N[C@H](C=O)C[C@@H]1CCCNC1=O [TPM16] | – | – | – | 166 ± 2 nM | 232 ± 1 nM | 10^3 |
| CC[C@H](C)[C@H](NC(=O)/C=C/c1ccccc1)C(=O)N[C@H](C=O)C[C@@H]1CCCNC1=O [TPM19] | – | – | – | 1060 ± 31 nM | 1220 ± 312 nM | 10^3 |
